Reference: PMC10873978, “Novel tetrahydroisoquinolines as DHFR and CDK2 inhibitors: synthesis, characterization, anticancer activity and antioxidant properties” (BMC Chemistry, 2024)

Key:
[1] = target: Eef2 kinase (Homo sapiens, UniProt O00418); test: Eef2 kinase inhibition; assay type: biochemical
[2] = target: T1, IKB kinase B (Homo sapiens, UniProt O14920); test: IKB kinase inhibition; assay type: biochemical; details: for %inh: IκB
T1 sequence (O14920 1-756): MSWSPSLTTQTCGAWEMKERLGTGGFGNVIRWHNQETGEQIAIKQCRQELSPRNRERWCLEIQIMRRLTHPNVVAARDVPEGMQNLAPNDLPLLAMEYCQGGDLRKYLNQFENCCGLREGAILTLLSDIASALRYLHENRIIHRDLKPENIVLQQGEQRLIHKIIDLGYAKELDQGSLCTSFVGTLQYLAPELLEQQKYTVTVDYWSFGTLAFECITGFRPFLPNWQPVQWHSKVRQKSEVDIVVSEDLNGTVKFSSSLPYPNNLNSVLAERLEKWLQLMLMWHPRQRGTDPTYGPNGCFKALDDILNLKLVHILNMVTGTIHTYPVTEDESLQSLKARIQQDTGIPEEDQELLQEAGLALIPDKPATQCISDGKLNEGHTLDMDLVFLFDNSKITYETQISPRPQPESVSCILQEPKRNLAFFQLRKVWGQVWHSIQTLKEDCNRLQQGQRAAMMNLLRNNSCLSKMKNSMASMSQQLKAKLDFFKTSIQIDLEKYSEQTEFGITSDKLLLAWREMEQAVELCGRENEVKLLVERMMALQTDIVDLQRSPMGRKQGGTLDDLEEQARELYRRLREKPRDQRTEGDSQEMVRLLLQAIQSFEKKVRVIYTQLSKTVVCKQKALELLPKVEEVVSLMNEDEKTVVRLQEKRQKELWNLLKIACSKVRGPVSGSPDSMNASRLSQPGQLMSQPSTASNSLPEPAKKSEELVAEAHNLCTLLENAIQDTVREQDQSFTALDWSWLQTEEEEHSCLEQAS

SMILES: CC(=O)c1ccc(NC(=O)c2sc3nc(C)c4c(c3c2N)CC(C)(O)C(C(C)=O)C4c2ccc(N(C)C)cc2)cc1 (stereo not drawn) [Compound 8d, 7-Acetyl-N-(4-acetylphenyl)-1-amino-5,8-dimethyl-8-hydroxy-6-(4-N,N-dimethylaminophenyl)-6,7,8,9-tetrahydrothieno[2,3-c]isoquinoline-2-carboxamide]
- %inh ([1]; Eef2, conc 0.01 (log -2)): 16.5%
- %inh ([1]; Eef2, conc 0.1 (log -1)): 32.8%
- %inh ([1]; Eef2, conc 1 (log 0)): 48.2%
- %inh ([1]; Eef2, conc 10 (log 1)): 76.5%
- %inh ([1]; Eef2, conc 100 (log 2)): 91.7%
- IC50 ([1]; read-out: Eef2 kinase (IC50 ± SD)): 689 ± 36 nM
- %inh ([2]; conc 0.01 (log -2)): 21.8%
- %inh ([2]; conc 0.1 (log -1)): 42.3%
- %inh ([2]; conc 1 (log 0)): 63.9%
- %inh ([2]; conc 10 (log 1)): 86.4%
- %inh ([2]; conc 100 (log 2)): 93.7%
- IC50 ([2]; read-out: IKB kinase B (IC50 ± SD)): 240 ± 13 nM
